From PubChem BioAssay AID1552 (Sanford-Burnham Center for Chemical Genomics, 2009)
Active and inactive are the calls of the source. The rule behind the calls is not given here.

Each compound was assayed against Ubiquitin-conjugating enzyme E2 N (Homo sapiens) (UniProt P61088) (assay: UBE2N binders by NMR, biophysical, purified protein (AID 1552)). Conditions: NMR binding to purified UBE2N.
Sequence of Ubiquitin-conjugating enzyme E2 N (Homo sapiens) (P61088 whole entry, looked up): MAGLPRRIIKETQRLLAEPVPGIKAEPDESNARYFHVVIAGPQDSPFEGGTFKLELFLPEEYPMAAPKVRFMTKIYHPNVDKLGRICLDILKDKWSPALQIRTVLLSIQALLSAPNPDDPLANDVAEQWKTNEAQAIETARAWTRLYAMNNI

| Compound | Kd |
| --- | --- |
| CC(C1OC(C)(C)C(O)C1O)[C@@H]1CC[C@]2(C)C3=CCC4C(C)(C)C(=O)CC[C@]4(C)C3CC[C@@]12C (stereo partly specified) | > 4 mM (inactive) |
| CC(CO)NC(=O)C1C=C2c3cccc4[nH]cc(c34)C[C@H]2N(C)C1 (stereo partly specified) | > 4 mM (inactive) |
| NC(=O)NC(=O)Nc1ccc(Cl)cc1 | > 4 mM (inactive) |
| COc1cc2c(cc1OC)[C@@H]1C(=O)c3ccc4c(c3O[C@@H]1CO2)C=CC(C)(C)O4 | > 4 mM (inactive) |
| O=c1ccnc(Nc2ccccc2O)[nH]1 | > 4 mM (inactive) |
| NS(=O)(=O)c1ccc2c(c1)OCCO2 | > 4 mM (inactive) |
| CCOCC(=O)NCc1n[nH]c(=O)c2ccccc12 | > 4 mM (inactive) |
| COC(=O)Cc1cc(=O)n(-c2nc3ccccc3s2)[nH]1 | > 4 mM (inactive) |
| O=C(Nc1ccc(Cl)cc1)N1CCCC1 | > 4 mM (inactive) |
| CC(=O)O[C@H]1CCC2(C)C3=C(CCC2C1(C)C)[C@@]1(C)CC[C@@H](C(C)CCC=C(C)C)[C@]1(C)CC3 (stereo partly specified) | > 4 mM (inactive) |
| COC[C@]12CN(C=O)C3[C@@H]4[C@H](OC)C1[C@]3(C1CC3(O)C(OC)C(O)C4(OC(C)=O)C1C3OC(=O)c1ccccc1)[C@@H](OC)C[C@H]2O (stereo partly specified) | > 4 mM (inactive) |
| CC(=O)Nc1nnc(-c2ccco2)o1 | > 4 mM (inactive) |
| Cc1occc1C(=O)NC1CCN(C)CC1 | > 4 mM (inactive) |
| Cc1sc2nc(-c3ccco3)oc(=O)c2c1C | > 4 mM (inactive) |
| N#Cc1sc2nc3c(c(-c4cccnc4)c2c1N)CCC3 | > 4 mM (inactive) |
| COc1ccc(C2(C)CC(=O)NC2=O)cc1 (stereo unspecified) | > 4 mM (inactive) |
| CC1(C)Oc2ccc(N)cc2O1 | > 4 mM (inactive) |
| Cn1c(=O)c2[nH]c(Nc3ccccc3)nc2n(C)c1=O | > 4 mM (inactive) |
| CC(C)=NNC(=O)c1ccccc1 | > 4 mM (inactive) |
| Cn1nnc2cc(C(=O)Nc3cccnc3)ccc21 | > 4 mM (inactive) |
| c1ccc(Cn2cccc2)nc1 | > 4 mM (inactive) |

| Compound | Kd |
| --- | --- |
| COc1ccc(C(=O)CC(=O)O)c2c1C=CC(C)(C)O2 | > 4 mM (inactive) |
| COC(=O)CSc1ncnc2c(C)csc12 | > 4 mM (inactive) |
| Cc1nc(-c2ccc(NS(C)(=O)=O)cc2)cs1 | > 4 mM (inactive) |
| CC(=O)O[C@H]1C[C@@H](OC(C)=O)C(C)(C)C2C[C@@H](OC(C)=O)[C@@]3(C)C4=CC(=O)O[C@@H](c5ccoc5)[C@]4(C)CCC3[C@]21C (stereo partly specified) | > 4 mM (inactive) |
| Cc1ccc(SCc2nc(-c3ccncc3)no2)cc1 | > 4 mM (inactive) |
| COc1ccc(/C=C2\NC(=S)N(C)C2=O)cc1O | > 4 mM (inactive) |
| CC1=C(/C=C/C(C)=C/C=C/C(C)=C/CO)C(C)(C)CCC1 | > 4 mM (inactive) |
| O=c1n(-c2ccccc2)c(=O)n2n1CCCC2 | > 4 mM (inactive) |
| O=C1NC(=O)/C(=C\c2ccncc2)S1 | > 4 mM (inactive) |
| C=C1C2CC[C@@]3(C)[C@H](c4ccoc4)OC(=O)C[C@]13O[C@H]1C[C@H](OC(C)=O)C(C)(C)[C@H](CC(=O)OC)[C@@]21C | > 4 mM (inactive) |
| Cc1ccc(C(O)c2nccn2C)o1 (stereo unspecified) | > 4 mM (inactive) |
| O=C(Nc1ccccn1)c1cc(-n2cnnc2)ccc1Cl | > 4 mM (inactive) |
| O=c1c2ccccc2nc(-c2ccco2)n1-c1nccs1 | > 4 mM (inactive) |
| CCOC(=O)c1ccc(F)cc1F | > 4 mM (inactive) |
| NC(=O)Cc1nc(-c2ccc(F)cc2)cs1 | > 4 mM (inactive) |
| Cc1c(CCO)c(=O)n2c([nH]c3ccccc32)c1C#N | > 4 mM (inactive) |
| COC(=O)CSc1nnc(-c2ccc(C(=O)O)cc2)o1 | > 4 mM (inactive) |
| C[N+](C)(C)CC(O)CC(=O)O (stereo unspecified) | > 4 mM (inactive) |
| OCc1ccc(Oc2ccccc2)nc1 | > 4 mM (inactive) |
| Cc1nc(-c2cc(CO)no2)cs1 | > 4 mM (inactive) |
| Cc1cc(C(=O)N2CCN(S(C)(=O)=O)CC2)cs1 | > 4 mM (inactive) |

| Compound | Kd |
| --- | --- |
| CC[C@@]1(O)C(=O)OCc2c1cc1n(c2=O)Cc2cc3ccccc3nc2-1 | > 4 mM (inactive) |
| O=C1CCCN1C(=O)CN1CCOCC1 | > 4 mM (inactive) |
| COC(=O)/C(=C1\OC(=O)C(c2ccccc2)C1=O)c1ccccc1 (stereo unspecified) | > 4 mM (inactive) |
| O=c1cccc2n1C[C@H]1CNCC2C1 | > 4 mM (inactive) |
| O=C1C2CC=CCC2C(=O)N1c1ccccc1O (stereo unspecified) | > 4 mM (inactive) |
| O=C(CN1C(=O)c2cccc3cccc(c23)C1=O)NO | > 4 mM (inactive) |
| O=C(O)C1=C[C@@H](O)[C@@H](O)[C@H](O)C1 | > 4 mM (inactive) |
| Cc1nnc2ccc(N3CCCC3)nn12 | > 4 mM (inactive) |
| O=c1ccn(Cc2ccccc2)c(=O)[nH]1 | > 4 mM (inactive) |
| Nc1nc(CSc2ncn(-c3ccccc3)n2)cs1 | > 4 mM (inactive) |
| COc1cccc(C(=O)Nc2c(C)n[nH]c2C)c1 | > 4 mM (inactive) |
| COc1cccc(-c2cc(=O)c3cc(OC)ccc3o2)c1 | > 4 mM (inactive) |
| COC(=O)CCC(C)C1CCC2C3CCC4C[C@H](O)CC[C@]4(C)C3C[C@H](O)[C@]12C (stereo partly specified) | > 4 mM (inactive) |
| CNC(=O)c1cc2cccc(OC)c2oc1=O | > 4 mM (inactive) |
| CC(=O)/C=C\[C@@H]1[C@@]2(C)CCCC(C)(C)C2CC[C@@]1(C)O (stereo partly specified) | > 4 mM (inactive) |
| Cc1nc2ccc(F)cc2cc1C(=O)NCc1ccco1 | > 4 mM (inactive) |
| COc1ccc(/C=C2/N=C(N)SC2=O)cc1 | > 4 mM (inactive) |
| Cc1ccc(C(C)C)cc2c(C)ccc1-2 | > 4 mM (inactive) |
| Cc1nccc2c1[nH]c1ccccc12 | > 4 mM (inactive) |
| Nc1cccc(C(=O)Nc2ccc(N)cc2Cl)c1 | > 4 mM (inactive) |
| Cc1nnc(NCCCO)[nH]c1=O | > 4 mM (inactive) |

| Compound | Kd |
| --- | --- |
| CCn1ccc(C(=O)Nc2nccs2)n1 | > 4 mM (inactive) |
| Cc1[nH]c2ccccc2c(=O)c1CO | > 4 mM (inactive) |
| Cc1ccccc1NC(=O)c1ccccc1 | > 4 mM (inactive) |
| COc1ccccc1-c1c(C)nn2c(C)c(C(C)=O)cnc12 | > 4 mM (inactive) |
| COc1ccc2ccc(=O)oc2c1 | > 4 mM (inactive) |
| Cn1c(=O)cc(O)c2ccccc21 | > 4 mM (inactive) |
| CC(=O)c1c(O)cc(C)n(Cc2ccccc2)c1=O | > 4 mM (inactive) |
| Cc1nnc(-n2cnc3ccccc32)c2ccccc12 | > 4 mM (inactive) |
| CCOC(=O)C1CCN(c2ncnc3nc[nH]c23)CC1 | > 4 mM (inactive) |
| CCSc1nc2ccccc2n1CC(N)=O | > 4 mM (inactive) |
| COc1ccc(CN2CCNC(=O)C2CC(=O)O)cc1C (stereo unspecified) | > 4 mM (inactive) |
| CN1CCN(C2CCN(Cc3ccccc3)CC2)CC1 | > 4 mM (inactive) |
| Cc1cc(C(=O)N2CCN(c3ncccn3)CC2)c(C)o1 | > 4 mM (inactive) |
| O=C(Nc1cnc2ccccn2c1=O)c1ccc(F)cc1 | > 4 mM (inactive) |
| Cc1nn(CC(=O)Nc2ccccc2)c(=O)c2ccccc12 | > 4 mM (inactive) |
| CC(=O)Oc1cc2c(c(C)c1OC(C)=O)CC=C1[C@@]2(C)CC[C@@]2(C)C3C[C@](C)(C(=O)O)CC[C@]3(C)CC[C@]12C (stereo partly specified) | > 4 mM (inactive) |
| O=C(O)c1cc2ccccc2[nH]1 | > 4 mM (inactive) |
| CC1(O)CC2C=CC1C2 (stereo unspecified) | > 4 mM (inactive) |
